Source: patent US20260315434A1, “USE OF GUAIACOL SESQUITERPENE LACTONE DERIVATIVES” (NANJING UNIVERSITY OF CHINESE MEDICINE, priority 2023, published 2026)
Where two headings read alike, the source gives them in different places. Marks after values point to notes of the source that are not given here.

Legend:
4T1 cells = assay: Antitumor effect in 4T1 mouse mammary carcinoma xenograft model; assay type: in vivo, BALB/c mice; settings: for Tumor inhibition rate (%) / Tumor weight: 40 μmol/kg/day, 4T1
Procedure: 4T1 cells were cultured and expanded in vitro. […] A 100 μL aliquot of this suspension was injected subcutaneously into the left forelimb axilla of female BALB/c mice. […] Daily oral administration was performed for 3 weeks. During the treatment period, mouse body weight and tumor diameter were measured daily. At the end of the experiment, mice were euthanized by cervical dislocation, and tumors were removed for weighing. Tumor volume (TV) was calculated using the formula: TV=½×a×b^2, where a represents the longest diameter of the tumor and b represents the shortest diameter.

CT26 cells = assay: Antitumor effect in CT26 colon cancer mouse subcutaneous model; assay type: in vivo, BALB/c mice; settings: for Tumor inhibition rate (%) / Tumor weight: 80 μmol/kg/day, CT26
[1] = Conversion (release) of prodrug salts to parent compound in HEPES buffer pH 7.4; assay type: in vitro ADME; settings: for degraded at 1 h / degraded at 2 h / degraded at 4 h / degraded at 8 h / degraded at 12 h: hepes buffer, pH 7.4, HEPES pH 7.4, 37 °C; for Release rate (conversion to Compound 1): HEPES pH 7.4, 37 °C
In short: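 Salt dissolved in water, mixed 1:1 with HEPES solution pH 7.4 (NaCl, KCl, Na2HPO4, glucose) and held at 37° C. At 1, 2, 4, 8 and 12 h, samples were methanol-quenched, centrifuged and analysed by reversed-phase HPLC at 210 nm, with peak areas recorded for conversion to parent compound.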

[2] = tested on: inflammatory cytokines (TNF, IL-6, IL-1) in renal tissue; assay: Folic acid-induced acute kidney injury, renal inflammatory factor mRNA; assay type: in vivo, C57BL/6 mice; settings: folic acid acute model
Procedure: (§1) Except for the normal group, all other mice were administered folic acid (250 mg/kg) dissolved in 0.9% NaHCO3 solution via intraperitoneal injection to establish an acute kidney injury model.
(§2) The blood was allowed to stand at room temperature for 2 hours, then centrifuged at 3000 rpm for 20 minutes. Serum was aspirated, aliquoted, and stored at −70° C. for future use. Following blood collection, euthanize mice by cervical dislocation. Perform laparotomy to remove kidneys, dissect out perirenal fat and capsules. […] Paraffin-embedded specimens undergo HE staining; remaining tissue is stored at −70° C. for future use.

[3] = Conversion (release) of prodrug salts to parent compound in mouse plasma; assay type: in vitro ADME; settings: 37 °C; for metabolised at 1 h / metabolised at 2 h / metabolised at 4 h / metabolised at 8 h / metabolised at 12 h: mouse, plasma
In short: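 Salts (0.6 mg in 250 μL water) were mixed 1:1 with heparinized mouse plasma or HEPES pH 7.4 and incubated at 37 °C. Samples were methanol-quenched and taken at 1–12 h. Parent compound was quantified by C18 HPLC-UV at 210 nm using peak areas.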

[4] = tested on: fibrosis-related factors (α-Sma, Col1a1, Tgfb1) in kidney tissue; assay: Folic acid-induced kidney injury, renal fibrosis-related factor mRNA; assay type: in vivo, C57BL/6 mice; settings: folic acid model
Procedure: as §1, §2

[5] = tested on: renal injury markers (Ngal, Havcr1) in kidney tissue; assay: Unilateral ureteral ligation (UUO) chronic kidney injury, renal injury marker mRNA; assay type: in vivo, C57BL/6 mice; parameters: unit not given here; settings: UUO chronic model
Source text: Chronic Kidney Injury: Mice were randomly divided into five groups. […] Except for the sham-operated mice in the normal group (where only the left ureter was exposed without further manipulation), all other mice underwent unilateral ureteral ligation to establish a chronic kidney injury model as follows: The abdominal skin was disinfected with iodine solution followed by alcohol. An incision was made, and the abdominal layers were dissected sequentially. The left ureter was fully exposed and dissected. A double ligation was performed at the bladder-proximal end of the left ureter using absorbable suture material, followed by closure.
as §2

[6] = 1 h, read-out: Release rate (conversion to Compound 82)
[7] = 2 h, read-out: Release rate (conversion to Compound 82)
[8] = 4 h, read-out: Release rate (conversion to Compound 82)
[9] = 8 h, read-out: Release rate (conversion to Compound 82)
[10] = 12 h, read-out: Release rate (conversion to Compound 82)
[11] = 1 h, read-out: Release rate (conversion to Compound 83)
[12] = 2 h, read-out: Release rate (conversion to Compound 83)
[13] = 4 h, read-out: Release rate (conversion to Compound 83)
[14] = 8 h, read-out: Release rate (conversion to Compound 83)
[15] = 12 h, read-out: Release rate (conversion to Compound 83)

CC1=C2CC[C@@](C)(OC(=O)N3CCCC3)[C@@H]2[C@H]2OC(=O)[C@@H](CN3CCCC3)[C@@H]2CC1 [Compound 103]
antitumor effect, 4T1 (4T1 cells; oral, 3 weeks, result in words): no significant antitumor effects
Tumor inhibition rate (%) (CT26 cells; oral, 3 weeks): 39.72%*
Tumor weight (CT26 cells; oral, 3 weeks): 4.86 ± 0.72 g
tumor-inhibiting effect, CT26 (CT26 cells; oral, 3 weeks, result in words): tumor-inhibiting effects
degraded at 1 h [1, 6]: 6.4%
degraded at 2 h [1, 7]: 14.2%
degraded at 4 h [1, 8]: 26%
degraded at 8 h [1, 9]: 45.6%
degraded at 12 h [1, 10]: 52.6%
Il1 mRNA expression, kidney ([2]; 0.1 mg/kg oral): 2.83 ± 1.00
Il6 mRNA expression, kidney ([2]; 0.1 mg/kg oral): 27.33 ± 11.81
Il1 mRNA expression, kidney ([2]; 1 mg/kg oral): 2.79 ± 1.31
Il6 mRNA expression, kidney ([2]; 1 mg/kg oral): 23.47 ± 6.54
Il1 mRNA expression, kidney ([2]; 10 mg/kg oral): 1.65 ± 1.00
Il6 mRNA expression, kidney ([2]; 10 mg/kg oral): 17.94 ± 9.61
metabolised at 1 h [3, 6]: 7.2%
metabolised at 2 h [3, 7]: 13.2%
metabolised at 4 h [3, 8]: 26.8%
metabolised at 8 h [3, 9]: 44.5%
metabolised at 12 h [3, 10]: 53.4%
Col1a1 mRNA expression, kidney ([4]; 0.1 mg/kg oral): 2.45 ± 0.63
α-Sma mRNA expression, kidney ([4]; 0.1 mg/kg oral): 3.50 ± 1.91
Col1a1 mRNA expression, kidney ([4]; 1 mg/kg oral): 2.25 ± 0.58
α-Sma mRNA expression, kidney ([4]; 1 mg/kg oral): 3.03 ± 0.99
Col1a1 mRNA expression, kidney ([4]; 10 mg/kg oral): 1.93 ± 0.41
α-Sma mRNA expression, kidney ([4]; 10 mg/kg oral): 1.55 ± 0.61
Havcr1 mRNA expression, kidney ([5]; 0.1 mg/kg oral): 117.81 ± 37.55
Ngal mRNA expression, kidney ([5]; 0.1 mg/kg oral): 145.28 ± 50.31
Havcr1 mRNA expression, kidney ([5]; 1 mg/kg oral): 88.33 ± 33.24
Ngal mRNA expression, kidney ([5]; 1 mg/kg oral): 118.82 ± 38.60
Havcr1 mRNA expression, kidney ([5]; 10 mg/kg oral): 93.99 ± 49.52
Ngal mRNA expression, kidney ([5]; 10 mg/kg oral): 104.98 ± 18.55

CC1=C2CC[C@@](C)(OC(=O)N3CCCCC3)[C@@H]2[C@H]2OC(=O)[C@@H](CN(C)C)[C@@H]2CC1 [Compound 102]
Tumor inhibition rate (%) (4T1 cells; oral, 3 weeks): −20.37%
Tumor weight (4T1 cells; oral, 3 weeks): 2.18 ± 1.34 g
antitumor effect, 4T1 (4T1 cells; oral, 3 weeks, result in words): no significant antitumor effects
degraded at 1 h [1, 11]: 6.8%
degraded at 2 h [1, 12]: 14.6%
degraded at 4 h [1, 13]: 24.8%
degraded at 8 h [1, 14]: 43%
degraded at 12 h [1, 15]: 51.8%
metabolised at 1 h [3, 11]: 6.6%
metabolised at 2 h [3, 12]: 14%
metabolised at 4 h [3, 13]: 26%
metabolised at 8 h [3, 14]: 42.4%
metabolised at 12 h [3, 15]: 47.8%

CN(C)C[C@@H]1C(=O)O[C@H]2[C@H]1CC[C@@]1(C)C[C@]13CC[C@@](C)(O)[C@H]23 [Compound 20]
Tumor inhibition rate (%) (4T1 cells; oral, 3 weeks): −15.24%
Tumor weight (4T1 cells; oral, 3 weeks): 2.09 ± 0.60 g
antitumor effect, 4T1 (4T1 cells; oral, 3 weeks, result in words): no significant antitumor effects
Tumor inhibition rate (%) (CT26 cells; oral, 3 weeks): 43.36%*
Tumor weight (CT26 cells; oral, 3 weeks): 4.62 ± 1.29 g
tumor-inhibiting effect, CT26 (CT26 cells; oral, 3 weeks, result in words): tumor-inhibiting effects
Release rate (conversion to Compound 1) ([1]; 1 h, 60 min): 6.2%
Release rate (conversion to Compound 1) ([1]; 2 h, 120 min): 13.8%
Release rate (conversion to Compound 1) ([1]; 4 h, 240 min): 21.7%
Release rate (conversion to Compound 1) ([1]; 8 h, 480 min): 44.3%
Release rate (conversion to Compound 1) ([1]; 12 h, 720 min): 59.1%
Il1 mRNA expression, kidney ([2]; 1 mg/kg oral, 1 mg/kg): 1.06 ± 0.33
Il6 mRNA expression, kidney ([2]; 1 mg/kg oral, 1 mg/kg): 1.55 ± 0.28
Tnf mRNA expression, kidney ([2]; 1 mg/kg oral, 1 mg/kg): 2.31 ± 0.72
Release rate (conversion to Compound 1) ([3]; 1 h, 60 min): 7.3%
Release rate (conversion to Compound 1) ([3]; 2 h, 120 min): 12.9%
Release rate (conversion to Compound 1) ([3]; 4 h, 240 min): 28.6%
Release rate (conversion to Compound 1) ([3]; 8 h, 480 min): 46.8%
Release rate (conversion to Compound 1) ([3]; 12 h, 720 min): 62.9%
Col1a1 mRNA expression, kidney ([4]; 1 mg/kg oral, 1 mg/kg): 1.18 ± 0.15
Tgfb1 mRNA expression, kidney ([4]; 1 mg/kg oral, 1 mg/kg): 0.98 ± 0.27
α-Sma mRNA expression, kidney ([4]; 1 mg/kg oral, 1 mg/kg): 1.11 ± 0.17
Havcr1 mRNA expression, kidney ([5]; 1 mg/kg oral, 1 mg/kg): 6.29 ± 2.43
Ngal mRNA expression, kidney ([5]; 1 mg/kg oral, 1 mg/kg): 16.14 ± 2.74

CN(C)C[C@@H]1C(=O)O[C@H]2[C@H]1CC[C@@]1(C)C[C@]13CC[C@@](C)(O)[C@H]23 [Compound 21]
Release rate (conversion to Compound 1) ([1]; 1 h, 60 min): 3.3%
Release rate (conversion to Compound 1) ([1]; 2 h, 120 min): 10.2%
Release rate (conversion to Compound 1) ([1]; 4 h, 240 min): 18.1%
Release rate (conversion to Compound 1) ([1]; 8 h, 480 min): 38.9%
Release rate (conversion to Compound 1) ([1]; 12 h, 720 min): 51.9%
Il1 mRNA expression, kidney ([2]; 0.1 mg/kg oral): 2.07 ± 0.38
Il6 mRNA expression, kidney ([2]; 0.1 mg/kg oral): 6.47 ± 0.53
Tnf mRNA expression, kidney ([2]; 0.1 mg/kg oral): 2.60 ± 0.62
Il1 mRNA expression, kidney ([2]; 1 mg/kg oral, 1 mg/kg): 1.45 ± 0.23
Il6 mRNA expression, kidney ([2]; 1 mg/kg oral, 1 mg/kg): 5.61 ± 2.10
Tnf mRNA expression, kidney ([2]; 1 mg/kg oral, 1 mg/kg): 2.42 ± 0.35
Release rate (conversion to Compound 1) ([3]; 1 h, 60 min): 5.4%
Release rate (conversion to Compound 1) ([3]; 2 h, 120 min): 10.7%
Release rate (conversion to Compound 1) ([3]; 4 h, 240 min): 17.9%
Release rate (conversion to Compound 1) ([3]; 8 h, 480 min): 39.3%
Release rate (conversion to Compound 1) ([3]; 12 h, 720 min): 55.4%
Col1a1 mRNA expression, kidney ([4]; 0.1 mg/kg oral): 1.58 ± 0.35
Tgfb1 mRNA expression, kidney ([4]; 0.1 mg/kg oral): 1.64 ± 0.16
α-Sma mRNA expression, kidney ([4]; 0.1 mg/kg oral): 1.80 ± 0.42
Col1a1 mRNA expression, kidney ([4]; 1 mg/kg oral, 1 mg/kg): 1.20 ± 0.19
Tgfb1 mRNA expression, kidney ([4]; 1 mg/kg oral, 1 mg/kg): 1.09 ± 0.15
α-Sma mRNA expression, kidney ([4]; 1 mg/kg oral, 1 mg/kg): 0.90 ± 0.21
Havcr1 mRNA expression, kidney ([5]; 0.1 mg/kg oral): 11.90 ± 4.52
Ngal mRNA expression, kidney ([5]; 0.1 mg/kg oral): 35.77 ± 7.67
Havcr1 mRNA expression, kidney ([5]; 1 mg/kg oral, 1 mg/kg): 7.25 ± 0.80
Ngal mRNA expression, kidney ([5]; 1 mg/kg oral, 1 mg/kg): 19.42 ± 1.55

C=C1C(=O)O[C@@H]2[C@H]3C(C)=CC[C@@]34O[C@@]4(C)CC[C@@H]12 [Arg, Arglabin, reference compound]
antitumor effect, 4T1 (4T1 cells; mouse, in vivo, po): no significant antitumor effects
tumor-inhibiting effect, CT26 (CT26 cells; mouse, in vivo, po): tumor-inhibiting effects
